Experiments:
[1] = test system: Chinese hamster ovary (CHO) AA8 cells; assay: OTX-coupled comet assay; type: cell-based; conditions: 1 mM MMS 10 minutes
Protocol: Chinese hamster ovary (CHO) AA8 cells were seeded at a concentration 0.5×10^6 cell/mL into several 10 cm culture dishes with 10 mL of MEM-α media (Gibco) supplemented with 10% fetal bovine serum (heat inactivated; Sigma), 100 μg/mL penicillin, and 100 μg/mL streptomycin. These were allowed to grow for 48 hours at 37° C. and 5% CO2. Culture dishes were about 80-85% confluent at harvest.
Before cells were harvested for use in the comet assay, the lysis solution (2.5 M NaCl, 100 mM Na2-EDTA, 10 mM Trizma, pH 10) was completed with the addition of 10% (v/v) DMSO and 1% (v/v) Triton X-100, mixed thoroughly, and refrigerated at 4° C. A 0.5% solution of low melting point agarose (LMPA) was also prepared and allowed to equilibrate to 37° C. in a water bath. Partially frosted microscope slides, pre-coated several days before with 50 μL of 1% normal melting point agarose (NMPA), were labeled and set aside.
Prior to cell harvest, the media was removed and each dish was washed with 10 mL of 1×PBS. An additional 2 mL of 1×PBS was added to each dish and the cells were harvested using a rubber policeman. Harvested cells were combined into 15 mL centrifuged tubes and gently mixed by pipetting to obtain a homogenous cell sample. The cell count was obtained using a hemacytometer. The volume of cell sample needed to obtain 11,000 cells per slide to be prepared was added to a new 15 mL centrifuge tube and centrifuged for 5 minutes at 1,100 RPM. The supernatant was removed and the cell pellet resuspended in 1×PBS at a volume equal to 10 μL per slide to be prepared (e.g. 5 slides×10 μL per slide=50 μL 1×PBS total).
For each slide to be prepared, 10 μL of the cell sample was added to a 1.5 mL centrifuge tube. The cell layer of the slide was created by first gently mixing 100 μL of the 0.5% LMPA with the 10 μL of cell sample in the tube. This mixture was then added to a pre-coated slide and a coverslip placed onto the slide to create a thin layer of the cell mixture. Slides with cell layers were then refrigerated at 4° C. for 15 minutes to solidify the gel. After this incubation, the initial coverslips were removed and an additional 150 μL of 0.5% LMPA was added to each slide. A fresh coverslip was placed onto each slide to create a thin top layer and the slides were refrigerated for another 15 minutes. After removing the coverslip, completed slides that were receiving MMS treatment were placed in a slide chamber containing warmed MEM-α media with 1 mM MMS for 10 minutes. The slide chamber was kept warm by placing it within an incubator held at 37° C. After the 10 minutes, the slides were washed with 1×PBS for 5 minutes at room temperature and then transferred to slide chambers containing the chilled lysis solution. […]

[2] = test system: DT40 cells; assay: Cell death in DT40 cells; type: cell-based; conditions: unpublished data
[3] = test system: AP sites in genomic DNA exposed to heat/acid conditions; assay: OTX optimization for protection of AP sites from alkaline cleavage (alkaline gel electrophoresis); set-up: species or system chicken; conditions: OTX 37° C. 1 hour, denaturation 100 mM NaOH (pH 12.8)
Protocol: AP sites were produced in stock DT40 DNA through exposure to heat/acid conditions. DT40 DNA was incubated in sodium citrate buffer (10 mM sodium citrate, 10 mM NaH2PO4, 10 mM NaCl pH 5) for 5 minutes at 70° C., followed by rapid chilling on ice to stop the reaction (Nakamura et al., Cancer Res., 58, 222-225 (1998)). Depurinated DNA was collected using Microcon® YM-3 centrifugal filter devices (Amicon Bioseparations). This DNA was then washed several times with HEPES buffer (50 mM, pH 7) supplemented with 1 mM 2,2,6,6-tetramethylpiperidine-N-oxyl (TEMPO). DNA was resuspended in HEPES buffer containing 1 mM TEMPO.
An alkaline gel electrophoresis protocol (AGE) (Drouin et al., in: Technologies for Detection of DNA Damage and Mutations (G. P. Pfeifer, ed.). Plenum Press, New York, N.Y., pp. 37-43 (1996)) with modifications was used to assess SSBs and ALSs in DNA from exposed cells. The 0.7% agarose gel was prepared in gel buffer (50 mM NaCl, 1 mM EDTA, pH 7) and deionized water. After forming, the gel was soaked in mild alkaline running buffer (30 mM NaOH, 1 mM EDTA, pH 12.4) for at least 30 minutes. Equal amounts of DNA (3-5 μg) were incubated for 1 hour at 37° C. in the presence or absence of 30 mM OTX (Aldrich) in 50 mM HEPES buffer. […] Following OTX exposure, the samples were denatured through treatment with an alkaline buffer (100 mM NaOH, 30 mM OTX, 50 mM HEPES, pH 12.8) for 20 minutes at 37° C. Samples then received loading buffer (10 mM NaOH, 95% formamide (Fluka), 0.05% bromophenol blue, 0.05% xylene cyanol) and were loaded onto the agarose gel. The gel was subjected to electrophoresis at a constant voltage (30 V) for 16 hours at 4° C. At the completion of electrophoresis, the gel was placed in neutralization buffer (400 mM Tris, pH 7.5) for 20 minutes at room temperature. […]
With knowledge of optimal AP site cleavage (pH≧12.2) and DNA denaturation (pH≦12.56) conditions, the utility of stabilizing AP sites prior to complete unwinding at high pH was assessed for subsequent gel electrophoresis. […]

[4] = test system: Pol β null cells; assay: SSB repair through NAD(P)H depletion, Pol β null cells; type: cell-based, chicken; conditions: Pol β null cells exposed to MMS
Protocol: (§1) SSB repair capacity was determined by a real-time colorimetric assay that measures intracellular NAD(P)H levels (Tano et al., DNA Repair, 6, 869-875 (2007)). PARP-1 activation during SSB repair leads to NAD^+ consumption, which can be indirectly monitored through NAD(P)H depletion (Nakamura et al., Nucleic Acids Res., 31, e104 (2003)). Briefly, 5×10^3 cells/well were seeded into a 96-well plate. After a 30 minute incubation period, the cells were treated with 1 mM MMS quickly followed by the addition of a dye containing XTT (Sigma) and 1-methoxy PMS (Sigma). For up to 4 hours, the NAD(P)H-dependent conversion of the XTT tetrazolium salt to a yellow colored formazan dye was measured spectrophotometrically. Decreases in intracellular NAD(P)H levels were determined through comparison of values to those of the PBS control. Established methods for detecting SSBs have not been adequately characterized for pH effects on DNA structure and chemistry and also lack a high specificity for SSBs, primarily because of artifactual SSB formation. […] The accumulation of SSBs leads to PARP-1 over-activation and the consumption of NAD+, which is indirectly monitored in living cells through the measurement of intracellular NAD(P)H depletion using tetrazolium salts, such as XTT, during chemical exposure (Tano et al., DNA Repair, 6, 869-875 (2007)). […]

[5] = test system: DT40 cells; assay: SSB repair through NAD(P)H depletion, DT40 cells; type: cell-based, chicken; conditions: DT40 cells exposed to MMS
Protocol: as §1

SMILES	tail moments over the various incubation times with OTX protection ([1]; 300 mM OTX 0-4 hours at 37° C.)	tail moment with OTX protection vs 1 hour incubation without OTX ([1]; 300 mM OTX, 1 hour incubation)	tail moment, one hour incubation with OTX vs zero hour incubation control without OTX ([1]; 300 mM OTX, one hour)	concentration that induces cell death [2] [µM]	optimum concentration to protect AP sites from alkaline cleavage [3] [mM]	OTX concentration with complete protection of AP sites from alkaline cleavage ([3]; electrophoresis pH 12.4) [mM]	OTX concentration with little to no protection of AP sites from alkaline cleavage ([3]; electrophoresis pH 12.4) [mM]	protection from MMS-induced NAD(P)H depletion [4]	protection from MMS-induced NAD(P)H depletion [5]
NOC1CCCCO1 (stereo not shown) [OTX, O-(tetrahydro-2H-pyran-2-yl)hydroxylamine]	no significant increase in tail moments	significant decrease in tail moment	significant decrease in tail moment	2000	30	≥ 10	< 1	–	–
NC(=O)c1cccc(N)c1 [3-aminobenzamide]	–	–	–	–	–	–	–	mostly protected	mostly protected
CON [Methoxyamine]	–	–	–	20000 to 30000	–	–	–	–	–

From patent publication US20090233307A1, “METHODS FOR DETECTION OF SINGLE STRAND BREAKS IN DNA” (The University of North Carolina at Chapel Hill, priority 2008, published 2009)
